Reference: US20110038948A1, “Methods of Reducing the Production of Reactive Oxygen Species and Methods of Screening or Identifying Compounds and Compositions that Reduce the Production of Reactive Oxygen Species” (UNIVERSITY OF TENNESSEE RESEARCH FOUNDATION, priority 2005, published 2011)
Blank lines part the entries; values can stand above or below the molecule they belong to.

How the values were obtained:
[1] = tested on: IL-6; experiment: IL-6 expression in RAW 264 macrophages; type: cell-based; conditions: RAW 264 macrophages cultured alone; compound added to calcitriol
Experimental: RAW 264 macrophages and 3T3-L1 preadipocytes (American Type Culture Collection) were incubated at a density of 8000 cells/cm2 (10 cm2 dish) and grown in Dulbecco's modified Eagle's medium (DMEM) containing 10% FBS and antibiotics (adipocyte medium) at 37° C. in 5% CO2 in air. Confluent 3T3-L1 preadipocytes were induced to differentiate with a standard differentiation medium consisting of DMEM-F10 (1:1, vol/vol) medium supplemented with 1% FBS, 1 μM dexamethasone, IBMX (0.5 mM) and antibiotics (1% Penicillin-Streptomycin). Preadipocytes were maintained in this differentiation medium for 3 days and subsequently cultured in adipocyte medium. […]
(§1) Cells were washed with fresh adipocyte medium, re-fed with medium containing the indicated treatments, and incubated at 37° C. in 5% CO2 for 48 hours before analysis. Cell viability was measured via trypan blue exclusion.
Human adipocytes (Zen-Bio, Inc.), 3T3-L1 adipocytes, RAW264 macrophages were obtained and co-cultured by using transwell inserts with 0.4 μm porous membranes (Corning) to separate adipocytes and macrophages. All data are expressed as mean±SEM. Data were evaluated for statistical significance by analysis of one-way or two-way variance (ANOVA; means with different letter differ, p<0.05). […]

[2] = tested on: TNFα; experiment: TNFα expression in RAW 264 macrophages; type: cell-based; conditions: RAW 264 macrophages cultured alone; compound added to calcitriol
Experimental: RAW 264 macrophages and 3T3-L1 preadipocytes (American Type Culture Collection) were incubated at a density of 8000 cells/cm2 (10 cm2 dish) and grown in Dulbecco's modified Eagle's medium (DMEM) containing 10% FBS and antibiotics (adipocyte medium) at 37° C. in 5% CO2 in air. Confluent 3T3-L1 preadipocytes were induced to differentiate with a standard differentiation medium consisting of DMEM-F10 (1:1, vol/vol) medium supplemented with 1% FBS, 1 μM dexamethasone, IBMX (0.5 mM) and antibiotics (1% Penicillin-Streptomycin). Preadipocytes were maintained in this differentiation medium for 3 days and subsequently cultured in adipocyte medium. Cultures were re-fed every 2-3 days to allow 90% cells to reach fully differentiation for 3T3-L1 adipocytes or grow to a confluence for RAW 264 before conducting chemical treatment.
as §1
Human adipocytes (Zen-Bio, Inc.), 3T3-L1 adipocytes, RAW264 macrophages were obtained and co-cultured by using transwell inserts with 0.4 μm porous membranes (Corning) to separate adipocytes and macrophages. All data are expressed as mean±SEM. Data were evaluated for statistical significance by analysis of one-way or two-way variance (ANOVA; means with different letter differ, p<0.05).
Adipocyte and muscle 18s, CD14, TNFα, MIP, M-CSF, IL-6 and MCP-1 were quantitatively measured using a Smart Cycler Real Time PCR System (Cepheid, Sunnyvale, Calif.) with a TaqMan 1000 Core Reagent Kit (Applied Biosystems, Branchburg, N.J.). […] Reactions of quantitative RT-PCR for standards and unknown samples were also performed according to the instructions of Smart Cycler System (Cepheid, Sunnyvale, Calif.) and TaqMan Real Time PCR Core Kit (Applied Biosystems, Branchburg, N.J.). The mRNA quantitation for each sample was further normalized using the corresponding 18s quantitation.

[3] = tested on: 3T3-L1 adipocytes; experiment: Intracellular ROS generation in cultured adipocytes (H2-DCFDA); type: cell-based, mouse
Experimental: 3T3-L1 preadipocytes were incubated at a density of 8000 cells/cm^2 (10 cm^2 dish) and grown in Dulbecco's modified Eagle's medium (DMEM) containing 10% FBS and antibiotics (adipocyte medium) at 37° C. in 5% CO2 in air. Confluent preadipocytes were induced to differentiate with a standard differentiation medium consisting of DMEM-F10 (1:1, vol/vol) medium supplemented with 1% FBS, 1 μM dexamethasone, IBMX (0.5 mM) and antibiotics (1% Penicillin-Streptomycin). Preadipocytes were maintained in this differentiation medium for 3 days and subsequently cultured in adipocyte medium. Cultures were re-fed every 2-3 days to allow 90% of cells to reach full differentiation before conducting chemical treatment. Chemicals were freshly diluted in adipocyte medium before treatment. Cells were washed with fresh adipocyte medium, re-fed with medium containing the different treatments, and incubated at 37° C. in 5% CO2 in air before analysis. Cell viability was measured via trypan blue exclusion. […] Cells were loaded with H2-DCFDA (2 μmol/L) 30 minute before the end of the incubation period (48 h). After washing twice with PBS, cells were scraped and disrupted by sonication on ice (20 s). Fluorescence (emission 543 nm or 527 nm) and DNA content were then measured as described previously. The intensity of fluorescence was expressed as arbitrary units per ng DNA.

[4] = tested on: 3T3-L1 adipocytes; experiment: Mitochondrial membrane potential (JC-1); type: cell-based, mouse; conditions: GDP 100 μmol/L plus H2O2
Experimental: 3T3-L1 preadipocytes were incubated at a density of 8000 cells/cm^2 (10 cm^2 dish) and grown in Dulbecco's modified Eagle's medium (DMEM) containing 10% FBS and antibiotics (adipocyte medium) at 37° C. in 5% CO2 in air. Confluent preadipocytes were induced to differentiate with a standard differentiation medium consisting of DMEM-F10 (1:1, vol/vol) medium supplemented with 1% FBS, 1 μM dexamethasone, IBMX (0.5 mM) and antibiotics (1% Penicillin-Streptomycin). Preadipocytes were maintained in this differentiation medium for 3 days and subsequently cultured in adipocyte medium. Cultures were re-fed every 2-3 days to allow 90% of cells to reach full differentiation before conducting chemical treatment. Chemicals were freshly diluted in adipocyte medium before treatment. […] Cell viability was measured via trypan blue exclusion.
Mitochondrial membrane potential was analyzed fluorometrically with a lipophilic cationic dye JC-1 (5,5′,6,6′-tetrachloro-1,1′,3,3′-tetraethylbenzimidazol carbocyanine iodide) using a mitochondrial potential detection kit (Biocarta, San Diego, Calif.). Mitochondrial potential was determined as the ratio of red fluorescence (excitation 550 nm, emission 600 nm) and green fluorescence (excitation 485 nm, emission 535 nm) using a fluorescence microplate reader.

[5] = tested on: 3T3-L1 adipocytes; experiment: Cell proliferation / DNA synthesis in cultured adipocytes (CyQUANT); type: cell-based, mouse; conditions: compound plus glucose 30 mmol/L, 48 hours
Experimental: 3T3-L1 preadipocytes were incubated at a density of 8000 cells/cm^2 (10 cm^2 dish) and grown in Dulbecco's modified Eagle's medium (DMEM) containing 10% FBS and antibiotics (adipocyte medium) at 37° C. in 5% CO2 in air. Confluent preadipocytes were induced to differentiate with a standard differentiation medium consisting of DMEM-F10 (1:1, vol/vol) medium supplemented with 1% FBS, 1 μM dexamethasone, IBMX (0.5 mM) and antibiotics (1% Penicillin-Streptomycin). Preadipocytes were maintained in this differentiation medium for 3 days and subsequently cultured in adipocyte medium. Cultures were re-fed every 2-3 days to allow 90% of cells to reach full differentiation before conducting chemical treatment. Chemicals were freshly diluted in adipocyte medium before treatment. Cells were washed with fresh adipocyte medium, re-fed with medium containing the different treatments, and incubated at 37° C. in 5% CO2 in air before analysis. Cell viability was measured via trypan blue exclusion. Cells were plated in DMEM with different treatment in duplicate in 96-well plates. After 48 h, a CyQUANT Cell Proliferation Kit (Molecular Probes, Eugene, Oreg.) was used following the manufacturer's protocol. a microplate fluorometer (Packard Instrument Company, Inc., Downers Grove, Ill.) was used to measure CyQUANT fluorescence. Cell viability was determined by Trypan blue exclusion examination.

[6] = tested on: NADPH oxidase; experiment: NADPH oxidase expression in cultured adipocytes; type: cell-based, mouse; conditions: glucose 30 mmol/L alone or plus compound, 48 hours
Experimental: (§2) 3T3-L1 preadipocytes were incubated at a density of 8000 cells/cm^2 (10 cm^2 dish) and grown in Dulbecco's modified Eagle's medium (DMEM) containing 10% FBS and antibiotics (adipocyte medium) at 37° C. in 5% CO2 in air. Confluent preadipocytes were induced to differentiate with a standard differentiation medium consisting of DMEM-F10 (1:1, vol/vol) medium supplemented with 1% FBS, 1 μM dexamethasone, IBMX (0.5 mM) and antibiotics (1% Penicillin-Streptomycin). Preadipocytes were maintained in this differentiation medium for 3 days and subsequently cultured in adipocyte medium. Cultures were re-fed every 2-3 days to allow 90% of cells to reach full differentiation before conducting chemical treatment. Chemicals were freshly diluted in adipocyte medium before treatment. Cells were washed with fresh adipocyte medium, re-fed with medium containing the different treatments, and incubated at 37° C. in 5% CO2 in air before analysis. Cell viability was measured via trypan blue exclusion. Adipocyte 18s, cyclin A, NADPH oxidase, and UCP2 were quantitatively measured using a Smart Cycler Real Time PCR System (Cepheid, Sunnyvale, Calif.) with a TaqMan 1000 Core Reagent Kit (Applied Biosystems, Branchburg, N.J.). The primers and probe sets were ordered from Applied Biosystems TaqMan® Assays-on-Demand™ Gene Expression primers and probe set collection according to manufacture's instruction. Pooled adipocyte total RNA was serial-diluted in the range of 1.5625-25 ng and used to establish a standard curve; total RNAs for unknown samples were also diluted in this range. Reactions of quantitative RT-PCR for standards and unknown samples were also performed according to the instructions of Smart Cycler System (Cepheid, Sunnyvale, Calif.) and TaqMan Real Time PCR Core Kit (Applied Biosystems, Branchburg, N.J.). The mRNA quantitation for each sample was further normalized using the corresponding 18s quantitation.

[7] = tested on: cyclin A; experiment: Cyclin A expression in cultured adipocytes; type: cell-based, mouse; conditions: compound plus glucose 30 mmol/L, 48 hours
Experimental: as §2, with “Cells were washed with fresh adipocyte medium, re-fed with medium containing the different treatments, and incubated at 37° C. in 5% CO2 in air before analysis.” left out, “The primers and probe sets were ordered from Applied Biosystems TaqMan® Assays-on-Demand™ Gene Expression primers and probe set collection according to manufacture's instruction. Pooled adipocyte total RNA was serial-diluted in the range of 1.5625-25 ng and used to establish a standard curve; total RNAs for unknown samples were also diluted in this range.” left out

[8] = tested on: C2C12 myotubes; experiment: IL-15 release by myotubes (ELISA); type: cell-based, murine; conditions: for effect on IL-15 release: C2C12 myotubes, 48 hours
Experimental: IL-15 release in the medium was determined using ELISA. Data are corrected for DNA content. Values are presented as mean±SEM, n=6. Means with different letter differ with p<0.05.

[9] = tested on: C2C12 myotubes; experiment: Fatty acid oxidation (palmitate oxidation) in muscle cells; type: cell-based, murine
Experimental: FIG. 53: Fatty acid oxidation was determined via palmitate oxidation. […] Data are corrected for DNA content. Values are presented as mean±SEM, n=6. Means with different letter differ with p<0.05.
The adipose tissue-skeletal muscle endocrine axis may play a potential role in regulating metabolic energy partitioning. […] While both calcium and dairy accelerate adipose tissue loss, dairy exerts a substantially greater effect and exerts a protective effect on lean tissue during hypocaloric diets. We have shown that dietary calcium modulation of adiposity is mediated, in part, by suppression of calcitriol, while the additional effect of dairy is mediated by additional bioactive components; these include the high concentration of leucine, a key factor in the regulation of muscle protein turnover. […] However, the effect of leucine and calcium, in regulating this process is unclear. Accordingly, present study was designed to investigate the effect of leucine, calcitriol and calcium on energy metabolism in murine adipocytes and muscle cells. Leucine induced a 41% increase in fatty acid oxidation in C2C12 muscle cells (p<0.001) and decreased fatty acid synthase gene expression by 66% (p<0.001) in 3T3-L1 adipocytes. Calcitriol decreased muscle cell fatty acid oxidation by 17% (p<0.05) and increased adipocyte FAS gene expression by 3-fold (p<0.05).

[10] = tested on: fatty acid synthase; experiment: Fatty acid synthase gene expression in adipocytes; type: cell-based, murine
From the text: The adipose tissue-skeletal muscle endocrine axis may play a potential role in regulating metabolic energy partitioning. […] However, the effect of leucine and calcium, in regulating this process is unclear. Accordingly, present study was designed to investigate the effect of leucine, calcitriol and calcium on energy metabolism in murine adipocytes and muscle cells.

Molecule: O=[N+]([O-])c1ccc(O)c([N+](=O)[O-])c1 [DNP]
effect on calcitriol stimulated IL-6 expression [1]: blocked
effect on calcitriol stimulated TNFα expression [2]: blocked

effect on NADPH oxidase expression [6]: suppressed
Molecule: Nc1nc2c(ncn2[C@@H]2O[C@H](COP(=O)(O)OP(=O)(O)O)[C@@H](O)[C@H]2O)c(=O)[nH]1 [GDP]
increase in ROS production compared with H2O2 treatment alone ([3]; GDP 100 μmol/L plus H2O2, 48 hours, p<0.01): 24%
effect on high glucose induced ROS production ([3]; compound plus glucose 30 mmol/L, 48 hours): further stimulated
augmentation of the H2O2 effect on mitochondrial potential [4]: 10%
effect on glucose induced DNA synthesis [5]: augmented
effect on glucose stimulated cyclin A expression [7]: augmented

effect on NADPH oxidase expression [6]: increased
Molecule: O=C[C@H](O)[C@@H](O)[C@H](O)[C@H](O)CO [glucose]
effect on ROS production ([3]; glucose 30 mmol/L, 48 hours, p<0.05): increased ROS production significantly

Molecule: CC(C)C[C@H](N)C(=O)O [leucine]
effect on IL-15 release [8]: without effect
increase in fatty acid oxidation ([9]; C2C12 muscle cells, leucine 2.5 mM, 48 hours, p<0.001): 41%
effect on conditioned medium decreased fatty acid oxidation in muscle cells ([9]; adipocytes conditioned with leucine and/or nifedipine): attenuated
effect on calcitriol decreased muscle cell fatty acid oxidation ([9]; compound added to calcitriol): partially reversed
decrease in fatty acid synthase gene expression ([10]; 3T3-L1 adipocytes, p<0.001): 66%
effect on calcitriol increased adipocyte FAS gene expression ([10]; compound added to calcitriol): partially reversed

B1: adiponectin: adipokine added to C2C12 myotubes at 70 ng/ml (protein, UniProt Q15848 19-244, looked up)
Adiponectin: ETTTQGPGVLLPLPKGACTGWMAGIPGHPGHNGAPGRDGRDGTPGEKGEKGDPGLIGPKGDIGETGVPGAEGPRGFPGIQGRKGEPGEGAYVYRSAFSVGLETYVTIPNMPIRFTKIFYNQQNHYDGSTGKFHCNIPGLYYFAYHITVYMKDVKVSLFKKDKAMLFTYDQYQENNVDQASGSVLLHLEVGDQVWLQVYGEGERNGLYADNDNDSTFTGFLLYHDTN
effect on IL-15 release [8]: significantly increased
effect on calcitriol inhibition of IL-15 release ([8]; adiponectin 70 ng/ml plus calcitriol 10 nM): partially reversed
effect on fatty acid oxidation ([9]; C2C12 myotubes, adiponectin 70 ng/ml, 48 hours): markedly increased
effect on fatty acid oxidation suppressed by calcitriol ([9]; in the presence of leucine): restored
